Data from paper PMC8142146 (Bioorganic chemistry, 2020).

What was measured:
TNKS1 (PARP5A) = target: T1, TNKS1 (PARP5A) (Homo sapiens, UniProt O95271); test: PARP-isoform screening, Chemiluminescent Activity Assay Kit; type: biochemical; conditions: Figure 5
T1 sequence (O95271 1-1327): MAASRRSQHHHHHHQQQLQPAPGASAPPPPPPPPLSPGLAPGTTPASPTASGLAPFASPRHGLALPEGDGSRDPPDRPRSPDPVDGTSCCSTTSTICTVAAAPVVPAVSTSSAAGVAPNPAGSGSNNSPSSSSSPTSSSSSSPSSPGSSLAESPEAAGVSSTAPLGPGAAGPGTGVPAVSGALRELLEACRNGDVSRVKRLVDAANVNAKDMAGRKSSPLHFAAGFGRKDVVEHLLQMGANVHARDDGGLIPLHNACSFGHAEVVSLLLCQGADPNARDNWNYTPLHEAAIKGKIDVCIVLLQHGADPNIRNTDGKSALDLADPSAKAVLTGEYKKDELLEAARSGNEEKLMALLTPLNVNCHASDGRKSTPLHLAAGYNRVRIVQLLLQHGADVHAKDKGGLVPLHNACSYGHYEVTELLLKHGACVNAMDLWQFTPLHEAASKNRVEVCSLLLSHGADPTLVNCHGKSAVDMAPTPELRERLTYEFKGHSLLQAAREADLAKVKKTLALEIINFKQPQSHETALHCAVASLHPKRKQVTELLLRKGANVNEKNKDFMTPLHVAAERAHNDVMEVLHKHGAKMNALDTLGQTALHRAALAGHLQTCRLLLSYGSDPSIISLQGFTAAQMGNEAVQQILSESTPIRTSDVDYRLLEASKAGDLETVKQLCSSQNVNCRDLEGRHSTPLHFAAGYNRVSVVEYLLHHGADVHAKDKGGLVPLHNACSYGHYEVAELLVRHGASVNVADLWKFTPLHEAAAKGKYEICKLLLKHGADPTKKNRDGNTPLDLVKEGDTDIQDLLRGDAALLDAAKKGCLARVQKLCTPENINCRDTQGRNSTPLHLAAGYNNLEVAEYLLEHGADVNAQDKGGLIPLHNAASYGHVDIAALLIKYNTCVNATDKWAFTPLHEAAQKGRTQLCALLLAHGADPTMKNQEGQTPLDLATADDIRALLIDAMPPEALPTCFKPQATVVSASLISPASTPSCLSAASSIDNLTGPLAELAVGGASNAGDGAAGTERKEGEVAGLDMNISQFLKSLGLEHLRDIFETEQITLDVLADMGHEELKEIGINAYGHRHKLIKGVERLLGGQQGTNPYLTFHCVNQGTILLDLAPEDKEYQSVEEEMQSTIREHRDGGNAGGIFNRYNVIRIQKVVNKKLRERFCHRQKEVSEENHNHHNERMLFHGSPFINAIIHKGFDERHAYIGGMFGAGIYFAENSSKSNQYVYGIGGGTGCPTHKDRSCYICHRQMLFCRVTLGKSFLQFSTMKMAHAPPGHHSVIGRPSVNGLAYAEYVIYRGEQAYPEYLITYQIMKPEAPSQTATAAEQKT

TNKS2 (PARP5B) = target: T2, TNKS2 (PARP5B) (Homo sapiens, UniProt Q9H2K2); test: as above; type: biochemical; conditions: Figure 5
T2 sequence (Q9H2K2 1-1166): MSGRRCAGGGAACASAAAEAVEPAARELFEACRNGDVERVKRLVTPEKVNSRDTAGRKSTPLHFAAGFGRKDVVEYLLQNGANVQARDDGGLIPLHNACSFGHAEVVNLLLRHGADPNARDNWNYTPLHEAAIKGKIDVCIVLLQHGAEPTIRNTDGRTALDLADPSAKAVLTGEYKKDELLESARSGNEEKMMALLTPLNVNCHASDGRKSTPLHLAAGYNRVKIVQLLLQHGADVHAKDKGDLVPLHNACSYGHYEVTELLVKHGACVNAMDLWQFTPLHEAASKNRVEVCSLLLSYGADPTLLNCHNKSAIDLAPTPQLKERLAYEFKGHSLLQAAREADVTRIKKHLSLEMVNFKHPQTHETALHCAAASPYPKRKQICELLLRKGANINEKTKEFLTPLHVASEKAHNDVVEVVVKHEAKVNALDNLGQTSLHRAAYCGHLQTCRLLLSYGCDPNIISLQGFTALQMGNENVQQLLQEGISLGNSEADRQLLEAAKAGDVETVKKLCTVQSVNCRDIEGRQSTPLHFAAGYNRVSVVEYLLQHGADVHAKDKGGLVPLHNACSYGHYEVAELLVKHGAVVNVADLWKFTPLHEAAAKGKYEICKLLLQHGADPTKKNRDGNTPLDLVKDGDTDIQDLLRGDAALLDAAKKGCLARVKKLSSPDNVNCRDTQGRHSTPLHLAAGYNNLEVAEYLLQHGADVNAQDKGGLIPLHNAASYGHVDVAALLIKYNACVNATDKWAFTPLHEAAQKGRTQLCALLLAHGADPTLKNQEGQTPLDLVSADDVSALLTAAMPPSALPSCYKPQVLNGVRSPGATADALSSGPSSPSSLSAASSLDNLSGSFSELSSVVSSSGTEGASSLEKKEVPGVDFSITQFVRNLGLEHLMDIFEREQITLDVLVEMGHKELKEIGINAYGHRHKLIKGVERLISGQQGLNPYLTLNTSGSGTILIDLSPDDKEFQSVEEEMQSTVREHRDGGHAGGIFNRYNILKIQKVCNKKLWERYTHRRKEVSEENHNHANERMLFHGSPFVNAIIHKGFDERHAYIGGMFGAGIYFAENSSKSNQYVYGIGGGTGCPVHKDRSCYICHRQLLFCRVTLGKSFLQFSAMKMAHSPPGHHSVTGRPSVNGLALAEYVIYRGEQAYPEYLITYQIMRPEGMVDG

Structure (SMILES): NC(=O)c1cccc2c1O/C(=C\c1ccc(O)cc1)C(=O)N2 [Compound 49, (Z)-2-(4-Hydroxybenzylidene)-3-oxo-3,4-dihydro-2H-benzo[b][1,4]oxazine-8-carboxamide]
- TNKS1 inhibition (TNKS1 (PARP5A)): substantially inhibited
- TNKS2 inhibition (TNKS2 (PARP5B)): substantially inhibited
